Experimental findings from patent US12042481B2, “Use of (1R,5S)-(+)-1-(naphthalen-2-yl)-3-azabicyclo[3.1.0]hexane in the treatment of conditions affected by monoamine neurotransmitters” (priority 2011, dated 2024) are described below.

The assay concerns male CD-1 (Crl.) derived mice. As to the kind of experiment: Mouse tail suspension test. The assay is classed as in vivo. On the procedure: The behavioral effects of (1R,5S)-(+)-1-(naphthalen-2-yl)-3-azabicyclo[3.1.0]hexane were evaluated in a model predictive of antidepressant activity, the mouse tail suspension test (Cryan and Mombereau, 2004).
For the tail test suspension test, male CD-1 (Crl.) derived mice weighing 20-26 g were provided by BioLasco Taiwan (Charles River Laboratories Technology Licensee). All animals were maintained in a controlled temperature (23° C.-24° C.) and humidity (60%-70%) environment with 12 hours light dark cycles for at least one week prior to use. For the tail suspension test, (1R,5S)-(+)-1-(naphthalen-2-yl)-3-azabicyclo[3.1.0]hexane was administered orally at dose from 10-40 mg/kg p.o. to groups of 10 CD-1 derived male mice by MDS Pharma Services, Taipei, Taiwan 112, R. O. C. (1R,5S)-(+)-1-(naphthalen-2-yl)-3-azabicyclo[3.1.0]hexane was dissolved in 2% Tween 80 and was administered at 10 ml/kg 60 minutes prior to the tail suspension test. During the test, the mice were suspended on the edge of a shelf 58 cm above a table top by adhesive tape placed approximately 1 cm from the tip of the tail. The duration of immobility was recorded for a period of 5 minutes (during 2-7 minutes of the tail suspension). The duration of the effects of (1R,5S)-(+)-1-(naphthalen-2-yl)-3-azabicyclo[3.1.0]hexane was also evaluated in the tail suspension test by varying pretreatment time.

Molecules are shown by their SMILES.

As to `c1ccc2cc([C@]34CNC[C@H]3C4)ccc2c1` [(1R,5S)-(+)-1-(naphthalen-2-yl)-3-azabicyclo[3.1.0]hexane], the immobility (20 mg/kg p.o., at 30 minutes) was 84 % of control; the immobility (20 mg/kg p.o., at 60 minutes) is reported as 82 % of control; the immobility (20 mg/kg p.o., at 120 minutes) was 75 % of control; the immobility (20 mg/kg p.o., at 240 minutes) is given as 47 % of control; the immobility (40 mg/kg p.o., 60 minutes prior to test) is 87 % of control. Also, the duration of effect result (oral) is “over 4 hours”. Besides, the “efficacy compared with desipramine (30 mg/kg p.o.)” value (oral) is “equivalent to the tricyclic antidepressant desipramine”. Also, under “oral, 60 minutes prior to test”, the “minimal effective dose for reducing time immobilized” value is on record as 20 mg/kg.
